This note sets out measurements from patent US7186519B2 (priority 2002, dated 2007).

For experiment [1], the system named is CT43 cells expressing NPC1-GFP. Nature of the experiment: Fluorescence microscopy of BCθ binding in NPC1-GFP transfected cells. The conditions noted are these: CT43 cells expressing NPC1-GFP exposed to U18666A.
Protocol: To examine the effect of NPC1 expression on intracellular BCθ binding to cholesterol in CT43 cells, a construct comprising a GFP-tagged NPC1 protein (NPC1-GFP) was prepared and introduced into CT43 cells by transient transfection. […] After BCθ binding, cells containing NPC1-GFP were viewed in the red channel to detect the BCθ fluorescence signal or in the green channel to detect the NPC1-GFP fluorescence signal. The two fluorescence signals were then merged to examine their degree of overlap.
2-hydroxypropyl-β-cyclodextrin (SIGMA™-Aldrich, St. Louis, Mo.) was added to culture medium using well-known methods (Rothblat, et al. (1999) supra). U18666A was provided to the cells using standard conditions (Lange, et al. (2000) supra; Liscum and Faust (1989) supra).
Transient transfection of NPC1-GFP was performed in CT43 cells using FUGENE™ 6 according to manufacturer's instructions (Roche, Indianapolis, Ind.). Transfected cells were imaged within 2–3 days of transfection.
Cells were grown on glass coverslips in six-well plates and processed for fluorescence studies. […]
Experiment [2] deals with 25RA cells. It counts as cell-based, Chinese hamster.
The subject of experiment [3] is CT43 cells. It is filed as cell-based, Chinese hamster.

Entries after “also recorded” stand apart in the source; their conditions may differ.

`CCN(CC)CCO[C@H]1CC[C@@]2(C)C(=CC[C@@H]3[C@@H]2CC[C@]2(C)C(=O)CC[C@@H]32)C1` [U18666A]: the “Effect on binding of BCθ to intracellular cholesterol” value in experiment [1] is listed as “binding of BCθ to intracellular cholesterol persisted”.

In the case of `CCCCC[C@@H](O)[C@H]1C(=O)O[C@H](C)[C@@H](O)/C=C/C=C/C=C/C=C/C=C(\C)[C@@H](O)C[C@H](O)C[C@H](O)C[C@H](O)C[C@H](O)C[C@H](O)C[C@@H]1O` [filipin], the “Binding to intracellular cholesterol” value in experiment [2] is given as “not in 25RA cells”; in experiment [3], “able to bind intracellular cholesterol in CT43 cells”.

In the case of 2-hydroxypropyl-b-cyclodextrin [hpCD], the “Effect on BCθ fluorescence signal (intracellular cholesterol)” value in experiment [3] is recorded as “both cell lines retained most of the BCθ fluorescence signals; also recorded: retained much of the signal”.
